Reference: the supplement of paper PMC10307832

Tests used:
Test in all cases: relative viability (nuclei count vs DMSO), 5 days (fraction); higher = more cells survive
[1] = compound: Cc1ccc(C(=O)Nc2cccc(C(F)(F)F)c2)cc1Nc1cncc(C(N)=O)c1 [ALW-II-49-7] + COc1cc2c(Oc3ccc(NC(=O)C4(C(=O)Nc5ccc(F)cc5)CC4)cc3F)ccnc2cc1OCCCN1CCOCC1 [Foretinib] (partner 0.25 µM)
Method in brief: (§1)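 Five library-drug doses in √10 steps were combined with a fixed anchor-drug dose, or a single drug was given alone, by pin tool to lung cancer cell lines in 1536-well plates the day after seeding. Nuclei were stained and counted after 5 days. Relative viability is the nuclei count in treated wells over that in vehicle wells, taken as the median of duplicate plates.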

[2] = compound: C1CC1C(=O)NC2=NNC3=C2C=CC(=C3)C4=CC(=CC=C4)C(=O)NC5CC5 [XMD13-2] + Cc1nc(NC(=O)N2CCC[C@H]2C(N)=O)sc1-c1ccnc(C(C)(C)C(F)(F)F)c1 [Alpelisib] (partner 2 µM)
Method in brief: as §1

[3] = compound: Cc1nc(Nc2ncc(C(=O)Nc3c(C)cccc3Cl)s2)cc(N2CCN(CCO)CC2)n1 [Dasatinib] + Nc1ncn([C@H]2C[C@H](O)[C@@H](CO)O2)c(=O)n1 [Decitabine] (partner 2 µM)
Method in brief: as §1

[4] = compound: Cc1ccc(C(=O)Nc2cccc(C(F)(F)F)c2)cc1Nc1cncc(C(N)=O)c1 [ALW-II-49-7] + Cc1nc(NC(=O)N2CCC[C@H]2C(N)=O)sc1-c1ccnc(C(C)(C)C(F)(F)F)c1 [Alpelisib] (partner 2 µM)
Method in brief: as §1

| Cell Line | relative viability ([1]; first compound 0.253 µM) | relative viability ([1]; first compound 0.8 µM) | relative viability ([1]; first compound 2.53 µM) | relative viability ([1]; first compound 8 µM) | relative viability ([2]; first compound 0.05 µM) | relative viability ([2]; first compound 0.1581 µM) | relative viability ([2]; first compound 0.5 µM) | relative viability ([2]; first compound 1.581 µM) | relative viability ([2]; first compound 5 µM) | relative viability ([3]; first compound 0.005 µM) | relative viability ([3]; first compound 0.01581 µM) | relative viability ([3]; first compound 0.05 µM) | relative viability ([3]; first compound 0.1581 µM) | relative viability ([3]; first compound 0.5 µM) | relative viability ([4]; first compound 0.08 µM) | relative viability ([4]; first compound 0.253 µM) | relative viability ([4]; first compound 0.8 µM) | relative viability ([4]; first compound 2.53 µM) | relative viability ([4]; first compound 8 µM) | relative viability ([1]; first compound 0.08 µM) |
| --- | --- | --- | --- | --- | --- | --- | --- | --- | --- | --- | --- | --- | --- | --- | --- | --- | --- | --- | --- | --- |
| 201T | 1.24 | 1.01 | 0.447 | 1.13 | 1.07 | 1.03 | 0.945 | 1 | 1.07 | 0.834 | 0.795 | 0.802 | 0.646 | 0.416 | 1 | 1.02 | 1.02 | 0.992 | 1.02 | – |
| A549 | 0.92 | 0.78 | 0.961 | 0.824 | 1.05 | 0.709 | 0.812 | 0.714 | 0.952 | 0.222 | 0.236 | 0.307 | 0.173 | 0.178 | 0.82 | 0.756 | 0.728 | 0.802 | 0.712 | 0.918 |
| A-427 | 0.95 | 1.12 | 1.14 | 1.2 | 1.19 | 1.05 | 1.02 | 0.949 | 0.965 | 0.616 | 0.513 | 0.543 | 0.491 | 0.493 | 1.25 | 1.06 | 1.13 | 1.21 | 1.12 | 1.16 |
| ABC-1 | 1.11 | 1.14 | 0.863 | 1.42 | 1.29 | 1.15 | 0.893 | 0.928 | 0.998 | 1.31 | 0.953 | 1.18 | 1.06 | 0.975 | 0.945 | 0.937 | 1.06 | 0.967 | 0.973 | 0.959 |
| BEN | 0.756 | 0.768 | 0.752 | 0.692 | 1.29 | 1.03 | 1 | 1.03 | 1.11 | 0.667 | 0.598 | 0.567 | 0.442 | 0.387 | 0.993 | 0.93 | 0.936 | – | 1.17 | 0.829 |
| CAL-12T | 1.14 | 1.19 | 1.07 | 0.843 | 1.31 | 1.18 | 1.24 | 1.11 | 1.4 | – | – | – | – | – | 1.26 | 1.14 | 1.2 | 1.21 | 1.26 | 1.11 |
| COR-L23 | 1.09 | 0.903 | 0.913 | 0.945 | 0.931 | 0.77 | 0.951 | 0.741 | 0.805 | 0.428 | 0.42 | 0.386 | 0.298 | 0.307 | 0.756 | 0.536 | 0.741 | 0.898 | 0.667 | 1.1 |
